Source: patent EP4644396A1 (Visionpharma (Nantong) Co., Ltd, priority 2022, dated 2024)
Read-outs that look alike come from different tables or passages of the source.

What was measured:
human TLR7 = target: T1, human TLR7 (Homo sapiens, UniProt Q9NYK1); assay: HEK-Blue hTLR7 SEAP reporter gene inhibition assay; type: cell-based
T1 sequence (Q9NYK1 27-1049): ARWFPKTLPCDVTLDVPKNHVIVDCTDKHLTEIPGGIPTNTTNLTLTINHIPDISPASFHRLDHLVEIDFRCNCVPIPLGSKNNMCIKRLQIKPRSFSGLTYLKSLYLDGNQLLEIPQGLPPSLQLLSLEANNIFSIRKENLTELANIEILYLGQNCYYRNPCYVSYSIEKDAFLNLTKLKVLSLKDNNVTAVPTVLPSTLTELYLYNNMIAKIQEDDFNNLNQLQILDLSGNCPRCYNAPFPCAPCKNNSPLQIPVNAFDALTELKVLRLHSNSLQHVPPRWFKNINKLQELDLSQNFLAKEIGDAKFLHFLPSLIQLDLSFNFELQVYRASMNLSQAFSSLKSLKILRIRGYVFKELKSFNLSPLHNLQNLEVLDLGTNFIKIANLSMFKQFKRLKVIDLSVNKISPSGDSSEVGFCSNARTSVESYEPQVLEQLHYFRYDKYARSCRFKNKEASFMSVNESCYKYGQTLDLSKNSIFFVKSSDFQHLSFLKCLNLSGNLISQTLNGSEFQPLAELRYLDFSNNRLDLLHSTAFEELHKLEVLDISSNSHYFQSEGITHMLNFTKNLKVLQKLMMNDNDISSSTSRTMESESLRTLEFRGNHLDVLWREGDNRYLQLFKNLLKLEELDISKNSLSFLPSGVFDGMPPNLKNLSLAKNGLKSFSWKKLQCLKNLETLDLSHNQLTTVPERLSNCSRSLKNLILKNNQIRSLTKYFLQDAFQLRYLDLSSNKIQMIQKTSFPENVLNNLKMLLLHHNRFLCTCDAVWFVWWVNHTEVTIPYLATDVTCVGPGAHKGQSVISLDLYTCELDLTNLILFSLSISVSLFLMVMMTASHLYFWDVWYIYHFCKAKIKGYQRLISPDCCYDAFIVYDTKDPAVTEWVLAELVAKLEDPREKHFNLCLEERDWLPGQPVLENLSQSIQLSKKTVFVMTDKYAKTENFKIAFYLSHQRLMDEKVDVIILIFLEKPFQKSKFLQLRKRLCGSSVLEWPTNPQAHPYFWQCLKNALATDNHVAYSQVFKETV
Summary of the method: (§1)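 Cells seeded (TLR7 line 80,000, TLR8 line 60,000 per well), compound added at 0.001–36 µM final for 15 min, then agonist at 10 µM final (Gardiquimod for TLR7) for 20 h. SEAP measured with Quanti-Blue; IC50 fitted.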

human TLR8 = target: T2, human TLR8 (Homo sapiens, UniProt Q9NR97); assay: HEK-Blue hTLR8 SEAP reporter gene inhibition assay; type: cell-based
T2 construct: expressed in transfected cells
T2 sequence (Q9NR97 27-1041): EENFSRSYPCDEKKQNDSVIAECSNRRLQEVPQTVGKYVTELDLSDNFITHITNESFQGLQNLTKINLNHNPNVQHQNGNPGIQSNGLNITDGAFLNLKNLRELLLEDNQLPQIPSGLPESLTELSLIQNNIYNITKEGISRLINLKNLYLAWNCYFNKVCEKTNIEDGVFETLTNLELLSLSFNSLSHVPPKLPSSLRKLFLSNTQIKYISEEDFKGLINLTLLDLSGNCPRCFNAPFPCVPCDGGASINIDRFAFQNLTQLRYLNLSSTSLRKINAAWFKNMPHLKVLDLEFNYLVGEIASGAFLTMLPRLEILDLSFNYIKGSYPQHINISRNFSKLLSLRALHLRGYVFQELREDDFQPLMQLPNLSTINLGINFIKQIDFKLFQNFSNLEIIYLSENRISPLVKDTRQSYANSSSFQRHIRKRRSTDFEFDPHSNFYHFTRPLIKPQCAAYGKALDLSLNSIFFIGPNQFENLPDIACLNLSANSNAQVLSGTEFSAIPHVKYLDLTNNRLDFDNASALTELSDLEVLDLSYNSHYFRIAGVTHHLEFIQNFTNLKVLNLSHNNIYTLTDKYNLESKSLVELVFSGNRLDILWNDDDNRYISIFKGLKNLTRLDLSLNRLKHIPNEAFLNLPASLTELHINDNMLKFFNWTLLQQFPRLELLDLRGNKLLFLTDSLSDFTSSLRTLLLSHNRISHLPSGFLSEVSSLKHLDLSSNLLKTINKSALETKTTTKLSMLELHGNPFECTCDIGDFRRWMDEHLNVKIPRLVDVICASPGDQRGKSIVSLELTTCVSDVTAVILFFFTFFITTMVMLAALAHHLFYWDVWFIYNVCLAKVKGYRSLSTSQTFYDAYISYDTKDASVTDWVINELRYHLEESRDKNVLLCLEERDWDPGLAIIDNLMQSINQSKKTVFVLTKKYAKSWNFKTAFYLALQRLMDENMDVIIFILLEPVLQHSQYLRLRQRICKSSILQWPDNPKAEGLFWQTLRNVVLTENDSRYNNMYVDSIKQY
Summary of the method: as §1

[1] = hTLR7 HEK-Blue cells, TLR7 ligand Gardiquimod 10 µM, 20 hours, SEAP by Quanti-blue, class symbols, read-out: HEK-Blue hTLR7 IC50
[2] = hTLR8 HEK-Blue cells, TLR8 ligand 10 µM, 20 hours, SEAP by Quanti-blue, class symbols, read-out: HEK-Blue hTLR8 IC50

SMILES	IC50 (human TLR7; [1]) [µM]	IC50 (human TLR8; [2]) [µM]	IC50 (human TLR7; HEK-Blue hTLR7 IC50 (µM)) [µM]	IC50 (human TLR8; HEK-Blue hTLR8 IC50 (µM)) [µM]
C[C@@H]1CN(c2ccc(C#N)n3ncc(F)c23)Cc2c3c(nn21)CC(N1CCC(O)C1)CC3 (stereo partly drawn) [Example I-34, 3-Fluoro-4-((4R)-8-(3-hydroxypyrrolidin-1-yl)-4-methyl-3,4,7,8,9,10-hexahydropyrazino[1,2-b]indazol-2(1H)-yl)pyrazolo[1,5-a]pyridine-7-carbonitrile]	< 0.05	< 0.1	–	–
C[C@@H]1CN(c2ccc(C#N)n3ncc(F)c23)Cc2c3c(nn21)CN(CC(=O)N1CC(F)(F)C1)[C@@H](C)C3 [Example I-140, 4-((4R,9S)-8-(2-(3,3-difluoroazetidin-1-yl)-2-oxoethyl)-4,9-dimethyl-3,4,7,8,9,10-hexahydropyrido[3',4':3,4]pyrazolo[1,5-a]pyrazin-2(1H)-yl)-3-fluoropyrazolo[1,5-a]pyridine-7-carbonitrile]	< 0.05	> 0.1	–	–
C[C@@H]1CN(c2ccc(C#N)n3ncc(F)c23)Cc2c3c(nn21)CN(CC(C)(C)O)[C@@H](C)C3 [Example I-117, 3-Fluoro-4-((4R,9S)-8-(2-hydroxy-2-methylpropyl)-4,9-dimethyl-3,4,7,8,9,10-hexahydropyrido[3',4':3,4]pyrazolo[1,5-a]pyrazin-2(1H)-yl)pyrazolo[1,5-a]pyridine-7-carbonitrile]	< 0.05	< 0.1	–	–
C[C@@H]1CN(c2ccc(C#N)n3ncc(F)c23)Cc2c3c(nn21)CN[C@H](CO)C3 [Example I-43, 3-fFuoro-4-((4R,9S)-9-(hydroxymethyl)-4-methyl-3,4,7,8,9,10-hexahydropyrido [3',4':3,4]pyrazolo[1,5-a]pyrazin-2(1H)-yl)pyrazolo[1,5-a]pyridine-7-carbonitrile]	–	–	< 0.05	< 0.1
C[C@@H]1CN(c2ccc(C#N)n3ncc(F)c23)Cc2c3c(nn21)CN(C1CC(O)C1)[C@@H](C)C3 (stereo partly drawn) [Example I-111, 3-Fluoro-4-((4R, 9S)-8-(3-hydroxycyclobutyl)-4,9-dimethyl-3,4,7,8,9, 10-hexahydropyridine [3 ', 4 ': 3, 4]pyrazole [1,5-a]pyrazine-2 (1 H) -yl) pyrazole [1,5-a] pyridine-7-nitrile]	–	–	< 0.05	< 0.1
